How the values were obtained:
Assay type in all cases: in vivo
[1] = system: Alopecurus myosuroides (ALOMY); experiment: Pre-emergence herbicidal activity, glasshouse pot test; conditions: Alopecurus myosuroides, 312 h; Rate 250 g/ha; pre-emergence spray; evaluated after 13 days; read-out: Pre-emergence activity ALOMY (100=total damage to plant; 0=no damage to plant)
Procedure, shortened: (§1)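 After sowing in standard soil, pots were cultivated for one day (pre-emergence) or eight days (post-emergence), then sprayed. Plants were watered twice daily in the glasshouse, and damage was rated 13 days after treatment, 0 being none and 100 total.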

[2] = system: Echinochloa crus-galli (ECHCG); experiment: as above; conditions: Echinochloa crus-galli, 312 h; Rate 250 g/ha; pre-emergence spray; evaluated after 13 days; read-out: Pre-emergence activity ECHCG (100=total damage to plant; 0=no damage to plant)
Procedure, shortened: as §1

[3] = system: Avena fatua (AVEFA); experiment: as above; conditions: Avena fatua, 312 h; Rate 250 g/ha; pre-emergence spray; evaluated after 13 days; read-out: Pre-emergence activity AVEFA (100=total damage to plant; 0=no damage to plant)
Procedure, shortened: as §1

[4] = system: Lolium perenne (LOLPE); experiment: as above; conditions: Lolium perenne, 312 h; Rate 250 g/ha; pre-emergence spray; evaluated after 13 days; read-out: Pre-emergence activity LOLPE (100=total damage to plant; 0=no damage to plant)
Procedure, shortened: as §1

[5] = system: Alopecurus myosuroides (ALOMY); experiment: Post-emergence herbicidal activity, glasshouse pot test; conditions: Alopecurus myosuroides, 312 h, rate 250 g/ha, evaluated after 13 days, glasshouse, read-out: Post-emergence activity ALOMY (100=total damage to plant; 0=no damage to plant)
Procedure, shortened: as §1

[6] = system: Echinochloa crus-galli (ECHCG); experiment: as above; conditions: Echinochloa crus-galli, 312 h, rate 250 g/ha, evaluated after 13 days, glasshouse, read-out: Post-emergence activity ECHCG (100=total damage to plant; 0=no damage to plant)
Procedure, shortened: as §1

[7] = system: Avena fatua (AVEFA); experiment: as above; conditions: Avena fatua, 312 h, rate 250 g/ha, evaluated after 13 days, glasshouse, read-out: Post-emergence activity AVEFA (100=total damage to plant; 0=no damage to plant)
Procedure, shortened: as §1

[8] = system: Lolium perenne (LOLPE); experiment: as above; conditions: Lolium perenne, 312 h, rate 250 g/ha, evaluated after 13 days, glasshouse, read-out: Post-emergence activity LOLPE (100=total damage to plant; 0=no damage to plant)
Procedure, shortened: as §1

| Structure (SMILES) | pest or weed control at 250 g/ha [1] [%] | pest or weed control at 250 g/ha [2] [%] | pest or weed control at 250 g/ha [3] [%] | pest or weed control at 250 g/ha [4] [%] | pest or weed control at 250 g/ha [5] [%] | pest or weed control at 250 g/ha [6] [%] | pest or weed control at 250 g/ha [7] [%] | pest or weed control at 250 g/ha [8] [%] |
| --- | --- | --- | --- | --- | --- | --- | --- | --- |
| CCc1ccc(Oc2cnc3ccccc3n2)cc1C1=C(O)CC(C)(C)CC1=O [Example A-291] | 70 | 100 | 90 | 100 | 100 | 100 | 100 | 100 |
| CCc1ccc(Oc2ccc(C#N)c(Cl)c2)cc1C1=C(O)CC(C)(C)CC1=O [Example A-280] | 70 | 100 | 40 | 70 | 90 | 100 | 70 | 60 |
| CCc1ccc(Oc2ccc(Cl)cc2F)cc1C1=C(O)C(C)(C)OC(C)(C)C1=O [Example A-15] | 100 | 100 | 60 | 100 | 90 | 100 | 70 | 100 |
| CCc1ccc(Oc2cc(Cl)nc(C)n2)cc1C1=C(O)C(C)(C)OC(C)(C)C1=O [Example A-130] | 0 | 30 | 0 | 0 | 10 | 40 | 0 | 10 |
| CCc1ccc(Oc2ccc(F)c(Cl)c2)cc1C1=C(O)CC(C)(C)CC1=O [Example A-257] | 0 | 40 | 0 | 20 | 30 | 80 | 0 | 50 |
| CCc1ccc(Oc2ccc(C#N)cc2C(F)(F)F)cc1C1=C(O)CC(C)(C)CC1=O [Example A-290] | 0 | 20 | 0 | 0 | 0 | 60 | 0 | 10 |
| CCc1ccc(Oc2ccc(C(F)(F)F)c(Cl)c2)cc1C1=C(O)[C@@H]2CC[C@](C)(C1=O)C2(C)C [Example A-315] | 80 | 100 | 60 | 100 | 40 | 90 | 80 | 90 |
| CCc1ccc(Oc2cnc3cc(Cl)ccc3n2)cc1C1=C(O)[C@H]2CC[C@H](C2)C1=O [Example A-255] | 100 | 100 | 100 | 100 | 100 | 100 | 100 | 100 |
| CCc1ccc(Oc2ccc(Cl)cc2)cc1C1=C(O)CCCC1=O [Example A-27] | 40 | 100 | 60 | 60 | 30 | 90 | 40 | 30 |
| CCc1ccc(Oc2cc(C(F)(F)F)cc(Cl)n2)cc1C1=C(O)C(C)(C)OC(C)(C)C1=O [Example A-146] | 10 | 10 | 0 | 0 | 30 | 70 | 30 | 20 |
| CCc1ccc(Oc2ccc(C#N)cc2)cc1C1=C(O)C(C)(C)OC(C)(C)C1=O [Example A-79] | 80 | 100 | 80 | 90 | 100 | 100 | 60 | 80 |
| CCc1ccc(Oc2ccc(C#N)c(C(F)(F)F)c2)cc1C1=C(O)C(C)(C)OC(C)(C)C1=O [Example A-76] | 70 | 100 | 80 | 60 | 80 | 100 | 70 | 70 |
| CCc1ccc(Oc2ccc([N+](=O)[O-])cc2F)cc1C1=C(O)C(C)(C)OC(C)(C)C1=O [Example A-20] | 40 | 100 | 20 | 0 | 0 | 80 | 70 | 50 |
| CCc1ccc(Oc2ccc(Br)cc2Cl)cc1C1=C(O)CC2(CCOCC2)CC1=O [Example A-189] | 50 | 90 | 40 | 60 | 90 | 100 | 100 | 90 |
| CCc1ccc(Oc2nc3ccccc3s2)cc1C1=C(O)CC2(CCOCC2)CC1=O [Example A-303] | 80 | 100 | 80 | 90 | 100 | 100 | 100 | 100 |
| CCc1ccc(Oc2nc3cc(Cl)ccc3s2)cc1C1=C(O)C(C)(C)OC(C)(C)C1=O [Example A-229] | 30 | 70 | 0 | 60 | 90 | 100 | 10 | 100 |
| CCc1ccc(Oc2ccc(C(F)(F)F)c(Cl)c2)cc1C1=C(O)C(C)(C)OC(C)(C)C1=O [Example A-101] | 60 | 90 | 80 | 90 | 100 | 100 | 90 | 100 |
| CCc1ccc(Oc2nccc(C(F)(F)F)n2)cc1C1=C(O)C(C)(C)OC(C)(C)C1=O [Example A-108] | 40 | 80 | 40 | 70 | 60 | 100 | 70 | 50 |
| CCc1ccc(Oc2nc(F)c(Cl)cc2Cl)cc1C1=C(O)C(C)(C)OC(C)(C)C1=O [Example A-140] | 20 | 50 | 0 | 50 | 70 | 100 | 70 | 70 |
| CC1(C)OC(C)(C)C(O)=C(c2cc(Oc3ccc(Cl)cc3Cl)ccc2C2CC2)C1=O [Example A-262] | 30 | 70 | 0 | 70 | 80 | 90 | 50 | 60 |
| CCc1ccc(Oc2ccc3ccccc3n2)cc1C1=C(O)[C@@H]2CC[C@](C)(C1=O)C2(C)C [Example A-321] | 70 | 100 | 50 | 90 | 90 | 100 | 90 | 90 |

— US8865623B2, “Herbicidally active cyclic diones and derivatives thereof, processes for their preparation, compositions, and method of controlling weeds” (Syngenta Limited, priority 2009, dated 2014)
